Patent US4542219A, “Certain heterocyclic ammonio phosphate derivatives” (Takeda Chemical Industries, Ltd., priority 1981, dated 1985)
Read-outs that look alike come from different tables or passages of the source.

Key:
[1] = system: human promyelocytic leukemia cell HL-60; experiment: Cell proliferation inhibition and differentiation induction, human promyelocytic leukemia cell HL-60 (Test Example 1): proliferation; format: cell-based; details: HL-60, 120 h, 5 days' culture, read-out: Cell proliferation inhibitory activity GD50
Description: The cell proliferation inhibitory activity (GD50) and differentiation inducing activity of the compound of this invention against human promyelocytic leukemia cell HL-60 are shown in Table 1. The assays were performed by the method described for example in R. Gallo et al, Blood. vol. 54, No. 3, 713 (1979).

[2] = system: Tetrahymena pyriformis W; experiment: Antiprotozoal activity, broth dilution method; format: cell-based; details: 28° C. for 44 to 48 hours, pH 7.0
Description: The antiprotozoal activity values given in Table 2 were assayed using Tetrahymena pyriformis W as the test organism and an assay medium composed of 20 g tryptose peptone (Difco), 1 g yeast extract, 2 g glucose, 1000 ml distilled water and 10 ml 1 M phosphate buffer, pH 7.0. Thus, the strain was incubated at 28° C. for 44 to 48 hours and the minimal inhibitory concentration (MIC) of the compound (I) was determined by the broth dilution method.

[3] = system: Cryptococcus neoformans; experiment: Antimycotic activity, paper disk zone of inhibition; format: cell-based; details: 48 h, 3 mg/ml, 8 mm paper disk, 37° C. for 2 days, read-out: Diameter of inhibition zone
Description: The antimycotic activity values presented in Table 2 were assayed using Cryptococcus neoformans as the test organism. Thus, a paper disk (8 mm dia.) was dipped into an aqueous solution of the test compound (3 mg/ml), dried in the air and set in position on an agar medium. The medium was incubated at 37° C. for 2 days, at the end of which time the diameter of the zone of inhibition was measured. When the diameter of the zone was not larger than 8 mm, 8-10 mm, 10-20 mm and larger than 20 mm, the activity was judged as -, ±, + and ++, respectively.

[4] = system: Pyricularia oryzae; experiment: microbe, parasite or virus in culture; format: cell-based
[5] = system: Helminthosporium oryzae; experiment: Antifungal activity, serial dilution method; format: cell-based; details: Bipolaris oryzae
[6] = system: Botrytis cinerea; experiment: Antifungal activity, serial dilution method; format: cell-based
[7] = system: Helminthosporium sigmordeum; experiment: Antifungal activity, serial dilution method; format: cell-based
[8] = system: Sclerotinia sclerotiorum; experiment: Antifungal activity, serial dilution method; format: cell-based; details: kidney bean stem rot, 1% glucose-bouillon agar
[9] = system: Colletotrichum lagenarium; experiment: Antifungal activity, serial dilution method; format: cell-based; details: Colletotrichum orbiculare
[10] = system: Aspergillus niger; experiment: Antifungal activity, serial dilution method; format: cell-based
[11] = system: Penicillium niger; experiment: Antifungal activity, serial dilution method; format: cell-based
[12] = system: Saccharomyces cerevisiae; experiment: Antifungal activity, serial dilution method; format: cell-based
[13] = Hemolysis test (method of Gottfried et al); format: cell-based; details: erythrocytes; in the presence of 5% human albumin; read-out: 50% hemolytic concentration
Source text: The compound (I) is of relatively low toxicity and has generally low hemolytic activity. […] In these compounds (I), the influence of the length of chain R^1 varies with the other moiety of the molecule.

[14] = system: sarcoma 180; experiment: Antitumor activity against sarcoma 180; format: in vivo, ICR mice; details: 500 μg/mouse
[15] = system: MM46 mammarian carcinoma; experiment: Antitumor activity against MM46 mammarian carcinoma; format: in vivo, C3 H/He mice; details: 250 μg/mouse/day, once daily, eight days in total; control average 14.2 days
Description: MM46 mammarian carcinoma cells (1×10^5) was transplanted intraperitoneally to each of five C3 H/He mice group. From five days to two days before the transplantation and from two day to five days after the transplantation, eight days in total. 250 μg/mouse/day of the test compound was administered to the test group, once daily. Survival period of three of the test group was not less than 60 days, and that of the remaining two was 23 days in average. On the other hand, the average survival period of mice of the control group was 14.2 days.

[16] = gray mold, 1% glucose-bouillon agar, read-out: MIC
[17] = black mold, 1% glucose-bouillon agar, read-out: MIC
[18] = blue mold, 1% glucose-bouillon agar, read-out: MIC
[19] = rice stem rot, 1% glucose-bouillon agar, read-out: MIC
[20] = cucumber anthracnose, 1% glucose-bouillon agar, read-out: MIC
[21] = brewer's yeast, 1% glucose-bouillon agar, read-out: MIC

SMILES | IC50 [1] [µg/mL] | MIC [2] [µg/mL] | zone of inhibition at 3000 µg/mL [3] [mm] | MIC [4] [µg/mL] | MIC [5] [µg/mL] | MIC [8] [µg/mL] | MIC [10, 17] [µg/mL] | further results
CCCCCCCCCCCCCCOCCOP(=O)([O-])OCC[N+](C)(C)C [Production Example 1, 2-Tetradecyloxyethyl 2-trimethylammonioethyl phosphate] | 3.8 | 0.4 | > 20 | 3.12 | 12.5 | 50 | – | MIC [6]: 12.5 µg/mL; MIC [7]: 3.12 µg/mL; MIC [9]: 3.12 µg/mL; MIC [10]: 12.5 µg/mL; MIC [11]: 12.5 µg/mL; MIC [12]: < 3.12 µg/mL
CCCCCCCCCCCCCOCCOP(=O)([O-])OCC[N+](C)(C)C [Production Example 2, 2-Tridecyloxyethyl 2-trimethylammonioethyl phosphate] | – | 0.4 | > 20 | 6.25 | 6.25 | 12.5 | 12.5 | MIC [6, 16]: 12.5 µg/mL; MIC [7]: 6.25 µg/mL; MIC [9]: 3.12 µg/mL; MIC [11]: 25 µg/mL; MIC [12]: 6.25 µg/mL; HC50 [13]: ~80 µg/mL
CCCCCCCC/C=C\CCCCCCCCOCCOP(=O)([O-])OCC[N+](C)(C)C [Production Example 3, 2-Oleyloxyethyl 2-trimethylammonioethyl phosphate] | – | 0.4 | > 20 | 1.56 | 6.25 | 100 | 25 | MIC [6, 16]: 3.12 µg/mL; MIC [7]: 6.25 µg/mL; MIC [9]: 6.25 µg/mL; MIC [11, 18]: 50 µg/mL; MIC [12]: 12.5 µg/mL
CCCCCCCCCCCCOCCOP(=O)([O-])OCC[N+](C)(C)C [Production Example 4, 2-Dodecyloxyethyl 2-trimethylammonioethyl phosphate] | – | 0.4 | 10 to 20 | 12.5 | 12.5 | 100 | 25 | MIC [6, 16]: 25 µg/mL; MIC [7, 19]: 25 µg/mL; MIC [9, 20]: 6.25 µg/mL; MIC [11, 18]: 25 µg/mL; MIC [12, 21]: 25 µg/mL
CCCCCCCCCCCCCCOCCOP(=O)(O)OCCN [Production Example 5, 2-Tetradecyloxyethyl 2-aminoethyl phosphate] | – | 4 | 8 to 10 | 25 | > 100 | 100 | 25 | MIC [6]: 50 µg/mL; MIC [7, 19]: > 100 µg/mL; MIC [9, 20]: 25 µg/mL; MIC [11, 18]: 50 µg/mL; MIC [12, 21]: 25 µg/mL
CCCCCCCCCCCCCCCCCCOCCOP(=O)(O)OCCN [Production Example 6, 2-Octadecyloxyethyl 2-aminoethyl phosphate] | 3 | > 4 | 8 to 10 | – | – | – | – | –
CCCCCCCCCCCCCCCOCCOP(=O)([O-])OCC[N+](C)(C)C [Production Example 7, 2-Pentadecyloxyethyl 2-trimethylammonioethyl phosphate] | 1.2 | ≤ 1 | 10 to 20 | – | – | – | – | –
CCCCCCCCCCCCCCCOCCOP(=O)([O-])OCC[n+]1ccccc1 [Production Example 8, 2-Pentadecyloxyethyl 2-pyridinioethyl phosphate] | 3.4 | 4 | 10 to 20 | – | – | – | – | –
CCCCCCCCCCCCCCOCCOP(=O)([O-])OCC[n+]1ccccc1 [Production Example 9, 2-Tetradecyloxyethyl 2-pyridinioethyl phosphate] | 4.1 | 4 | > 20 | – | – | – | – | –
CCCCCCCCCCCCCCCCCCOCCOP(=O)([O-])OCC[n+]1ccccc1 [Production Example 10, 2-Octadecyloxyethyl 2-pyridinioethyl phosphate] | 1.5 | 4 | – | – | – | – | – | survival rate of the test group against the control group T/C [14]: 310%; Average survival period ([14]; four days before ip transplantation of 1×10^5 cells, control 9.6 days): 29.8 days; Average survival period of the remaining two of the test group (five mice) [15]: 23 days; Survival period of three of the test group (five mice) [15]: not less than 60 days
CCCCCCCCCCCCCCOCCOP(=O)([O-])OCC[N+](C)(C)CCCC(=O)OC [Production Example 11, 2-Tetradecyloxyethyl 2-[N,N-dimethyl-N-(3-methoxycarbonylpropyl)]ammonioethyl phosphate] | 2.5 | 4 | – | – | – | – | – | –
CCCCCCCCCCCCCCOCCOP(=O)([O-])OCC[N+](C)(C)CCCC(=O)O [Production Example 12, 2-Tetradecyloxyethyl 2-[N-(3-carboxypropyl)-N,N-dimethyl]ammonioethyl phosphate] | 1.5 | 0.4 | – | – | – | – | – | –
